Experimental data reported in patent US20170252383A1, “AGENT FOR PROMOTING GROWTH OF NONPATHOGENIC ORAL INDIGENOUS BACTERIA OR AGENT FOR IMPROVING ORAL BACTERIAL FLORA, AND COMPOSITION FOR ORAL USE” (HOKUTO CORPORATION, priority 2014, published 2017).

Assays:
Experiment in all cases: Growth-promoting effects on normal bacteria in oral cavity (Experimental Example 2)
Assay type in all cases: cell-based
Settings in all cases: powder 0.01% in distilled water (triclosan concentration not printed), aerobic 37° C., 12 hours, turbidity relative to control without sample
[1] = test system: Streptococcus oralis ATCC 9811
Experimental: (§1) Dry-ground mushroom powder suspensions obtained by dispersing the dry-ground powders of various mushrooms prepared as described above to a concentration of 0.01% in distilled water, and 4% aqueous solutions of the various mushroom extracts obtained as described above, were each added as samples in 100 μL portions to 96-well plates.
(§2) Next, 100 μL of suspensions of the bacteria shown in Tables 1 and 2 were added to the dry-ground mushroom powder suspensions and mushroom extracts serving as these samples, and the bacteria were cultured aerobically at 37° C. for 12 hours. The bacterial suspensions used were prepared by pre-culturing the bacteria in a tryptic soy medium (TS medium; Becton and Dickinson), and inoculating the pre-cultured bacteria to a 2% concentration in a 2-fold concentration TS medium.
(§3) Bacterial proliferation was measured, calculated and evaluated in the same way as in Experimental Example 1.
(§4) The indigenous oral bacteria used in evaluation were of the following three species purchased from the ATCC.
Streptococcus oralis ATCC 9811 (abbreviated below as S. oralis)
(§5) Prior to turbidity measurement, the culture fluids were stirred by shaking the plates.

[2] = test system: Streptococcus gordonii ATCC 10558
Experimental: as §1, §2, §3, §4
Streptococcus gordonii ATCC 10558 (S. gordonii)
as §5

[3] = test system: Streptococcus mitis ATCC 47456
Experimental: as §1, §2, §3, §4
Streptococcus mitis ATCC 47456 (abbreviated below as S. mitis)
as §5

Oc1cc(Cl)ccc1Oc1ccc(Cl)cc1Cl [Triclosan, triclosan]
0: Degree of bacterial growth due to dry-ground powders, S. oralis [1] | Degree of bacterial growth due to dry-ground powders, S. gordonii [2] | Degree of bacterial growth due to dry-ground powders, S. mitis [3]
suppressed growth: Degree of bacterial growth due to dry-ground powders, S. oralis ([1]; listed as triclosan) | Degree of bacterial growth due to dry-ground powders, S. gordonii ([2]; listed as triclosan) | Degree of bacterial growth due to dry-ground powders, S. mitis ([3]; listed as triclosan)
